Experimental data taken from PMC11997999, “Uncovering α-Selectivity for Liver X Receptor Agonists for Lipotoxic Cancer Therapies” (Journal of Medicinal Chemistry, 2025).

Key:
Hep3B cells = assay: Cell viability analysis in Hep3B cells (CellTiter-Glo); format: cell-based, human; conditions: 5 d, 2 μM
Description: To determine the therapeutic efficacy of compound 40 in HCC cells, we next tested its effect on Hep3B cell viability in combination with the DFG-out Raf inhibitor sorafenib (2 μM).
For organoid treatment studies, digestion of organoids was performed using TrypLE Express (Gibco) supplemented with 100 μg/mL DNaseI and 10.5 μM Y-27632 dihydrochloride (Invitrogen) at 37 °C, and afterward, single-cells were plated in white 96 well plates (Sarstedt) in a mixture of 10% Matrigel (Growth Factor Reduced (GFR) Matrigel, Corning) in culture medium. Cell viability was determined after 5 days of treatment using the CellTiter-Glo 3D Cell Viability Assay Kit (Promega). Cell viability of Hep3B, AML12, and BNL CL.2 cells was determined after 5 days of treatment in white 96 well plates (Sarstedt) using the CellTiter-Glo 2.0 Cell Viability Assay Kit (Promega). AML12 and BNL CL.2 cells were also obtained from the American Type Culture Collection. The luminescence signal was measured using an […] M PLEX plate reader (Tecan) and the Tecan i-control software (v3.9.1). Sodium oleate (Selleckchem) was dissolved in methanol and added to cells at a final concentration of 200 μM.

LXRβ LBD (GST) = target: T1, LXRβ LBD (GST) (Homo sapiens, UniProt P55055); assay: Time-resolved LXR FRET assay (LanthaScreen TR-FRET LXRβ assay kit); format: biochemical; conditions: for EC50: 10 nM LXRβ LBD (GST), read after 6 h, R^2 of fit given, read-out: TR-FRET activity (EC50) LXRβ; for TR-FRET activity on LXRβ, in words: statement made for both isoforms
T1 construct: 5 nM LXRα LBD (GST); 10 nM LXRβ LBD (GST); purchased ThermoFisher Scientific PV4658
T1 sequence (P55055 222-460 limits assumed): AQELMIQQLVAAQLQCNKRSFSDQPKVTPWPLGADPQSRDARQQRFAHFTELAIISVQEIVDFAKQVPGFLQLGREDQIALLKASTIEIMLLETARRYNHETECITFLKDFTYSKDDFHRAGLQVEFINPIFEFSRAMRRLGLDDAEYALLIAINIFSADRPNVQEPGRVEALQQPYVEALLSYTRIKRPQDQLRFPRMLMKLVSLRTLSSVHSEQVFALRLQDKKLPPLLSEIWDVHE
Description: (§1) The biochemical TR-FRET assays were performed using the LanthaScreen TR-FRET LXRα Coactivator Assay Kit, goat (ThermoFisher Scientific, PV4655), and the LanthaScreen TR-FRET LXRβ assay kit, goat (ThermoFisher Scientific, PV4658), according to the manufacturer’s instructions using the following concentrations: 5 nM LXRα LBD (GST); 10 nM LXRβ LBD (GST); 500 nM fluorescein-TRAP220/DRIP-2; 200 nM fluorescein-D22; 10 nM Tb anti-GST antibody. The TR-FRET signals were measured after 6 h using a TECAN SPARK multimode microplate reader with the following settings: first excitation wavelength: 360 nm (bandwidth 35 nm), first emission wavelength: 485 nm (bandwidth 20 nm); second excitation wavelength: 360 nm (bandwidth 35 nm), second emission wavelength: 535 nm (bandwidth 25 nm); integration time: 200 μs; lag time: 100 μs; settle time: 0 ms.

LXRβ = target: T2, LXRβ (Homo sapiens, UniProt P55055); assay: LXRβ-specific LXRE-GFP reporter assay in Hep3B cells (NR1H3 knockout); format: cell-based; conditions: 48h of treatment, GFP by FACS
T2 construct: To measure the activity of the remaining isoform under treatment; endogenous in cells; host or cells: Hep3B (NR1H3 knockout, LXRE-GFP reporter)
T2 sequence (P55055 1-460): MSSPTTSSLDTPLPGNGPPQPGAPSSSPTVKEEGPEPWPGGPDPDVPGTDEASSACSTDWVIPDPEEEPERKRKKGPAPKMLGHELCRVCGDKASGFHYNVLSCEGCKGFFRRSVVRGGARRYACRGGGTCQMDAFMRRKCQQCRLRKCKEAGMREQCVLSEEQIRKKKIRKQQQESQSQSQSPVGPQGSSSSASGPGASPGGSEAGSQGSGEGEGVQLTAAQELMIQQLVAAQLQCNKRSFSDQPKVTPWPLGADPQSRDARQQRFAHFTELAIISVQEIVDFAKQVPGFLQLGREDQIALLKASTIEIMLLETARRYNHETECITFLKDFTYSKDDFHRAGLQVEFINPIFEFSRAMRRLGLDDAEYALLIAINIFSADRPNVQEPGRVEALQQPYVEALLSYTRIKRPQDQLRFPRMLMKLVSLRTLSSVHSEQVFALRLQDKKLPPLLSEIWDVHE

LXRα LBD (GST) = target: T3, LXRα LBD (GST) (Homo sapiens, UniProt Q13133); assay: Time-resolved LXR FRET assay (LanthaScreen TR-FRET LXRα Coactivator Assay Kit); format: biochemical; conditions: for EC50: 5 nM LXRα LBD (GST), read after 6 h, R^2 of fit given, read-out: TR-FRET activity (EC50) LXRα; for TR-FRET activity on LXRα, in words: statement made for both isoforms
T3 construct: 5 nM LXRα LBD (GST); 10 nM LXRβ LBD (GST); purchased ThermoFisher Scientific PV4655
T3 sequence (Q13133 209-447 limits assumed): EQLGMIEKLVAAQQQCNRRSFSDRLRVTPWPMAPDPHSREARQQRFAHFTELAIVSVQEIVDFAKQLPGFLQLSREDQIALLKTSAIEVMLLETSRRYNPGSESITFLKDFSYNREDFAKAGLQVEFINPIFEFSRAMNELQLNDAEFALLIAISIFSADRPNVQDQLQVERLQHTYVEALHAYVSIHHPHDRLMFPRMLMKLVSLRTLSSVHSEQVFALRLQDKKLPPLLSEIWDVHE
Description: as §1

LXRα = target: T4, LXRα (Homo sapiens, UniProt Q13133); assay: LXRα-specific LXRE-GFP reporter assay in Hep3B cells (NR1H2 knockout); format: cell-based; conditions: 48h of treatment, GFP by FACS
T4 construct: To measure the activity of the remaining isoform under treatment; endogenous in cells; host or cells: Hep3B (NR1H2 knockout, LXRE-GFP reporter)
T4 sequence (Q13133 1-447): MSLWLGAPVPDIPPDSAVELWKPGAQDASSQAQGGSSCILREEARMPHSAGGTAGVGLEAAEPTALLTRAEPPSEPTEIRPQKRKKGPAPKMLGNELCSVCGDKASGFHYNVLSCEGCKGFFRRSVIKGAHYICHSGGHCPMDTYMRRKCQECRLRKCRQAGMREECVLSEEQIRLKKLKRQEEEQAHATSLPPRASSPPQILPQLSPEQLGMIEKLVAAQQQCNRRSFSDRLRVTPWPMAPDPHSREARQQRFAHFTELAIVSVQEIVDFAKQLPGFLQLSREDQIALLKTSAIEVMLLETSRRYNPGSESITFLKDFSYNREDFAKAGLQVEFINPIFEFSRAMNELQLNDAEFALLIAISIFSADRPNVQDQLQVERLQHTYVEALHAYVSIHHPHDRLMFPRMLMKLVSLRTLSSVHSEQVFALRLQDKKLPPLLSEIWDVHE

[1] = system: Akt1^Myr; Myc^OE HCC organoids; assay: Cell viability analysis in HCC organoids (CellTiter-Glo 3D); format: cell-based, murine; conditions: 5d, with 4 μM sorafenib
Text: Finally, we analyzed the efficacy of compound 40 in preclinical treatment studies in three-dimensional liver cancer organoid cultures. HCC organoids driven by myristoylated Akt1 and overexpressed Myc (Akt1^Myr; Myc^OE) were isolated from murine liver tumors and subjected to monotherapies of sorafenib, compound 40, or a combination thereof (Figure 7C). The therapeutic outcome was side-by-side compared with combinatorial therapies comprising the established agonists T0901317 (1) and GW3965 (2). […] Isolation of murine HCC organoid cultures was performed from liver tumors derived from C57BL/6 mice using established protocols.[26] The animal experiments were approved by committees of the regional authority of the state of Baden-Wuerttemberg (Regierungspraesidium Tuebingen, authorization number M15/18G) as appropriate. After digestion, the organoids were embedded in 100% Growth Factor Reduced (GFR) MatrigelTM (Corning) and cultured at 37 °C and 5% CO2 in HCC organoid medium supplemented with nicotinamide (10 mM), N-acetylcystein (1.25 mM), human HGF (50 ng/mL), human FGF-10 (100 ng/mL), human R-Spondin (0.5 μg/mL), forskolin (10 μM), A83- 01 (0.5 μM), murine Noggin (50 ng/mL), gastrin I (10 nM), human BMP-7 (25 ng/mL), human Wnt3a (100 ng/mL), B27 supplement (1×) and N2 supplement (1×). The cultures were split by mechanical dissociation every 3 to 4 days. […] Cell viability was determined after 5 days of treatment using the CellTiter-Glo 3D Cell Viability Assay Kit (Promega). Cell viability of Hep3B, AML12, and BNL CL.2 cells was determined after 5 days of treatment in white 96 well plates (Sarstedt) using the CellTiter-Glo 2.0 Cell Viability Assay Kit (Promega). […] The luminescence signal was measured using an […] M PLEX plate reader (Tecan) and the Tecan i-control software (v3.9.1). […]

Compound	therapeutic effect on cell viability, sorafenib monotherapy (Hep3B cells)	EC50 (LXRβ LBD (GST)) [nM]	EC50 (LXRβ) [nM]	EC50 (LXRα LBD (GST)) [nM]	EC50 (LXRα) [nM]	therapeutic efficacy (cell viability) in combination with sorafenib [1]	TR-FRET activity on LXRβ, in words (LXRβ LBD (GST))	TR-FRET activity on LXRα, in words (LXRα LBD (GST))
CNC(=O)c1cc(Oc2ccc(NC(=O)Nc3ccc(Cl)c(C(F)(F)F)c3)cc2)ccn1 [sorafenib, reference compound]	only a low therapeutic effect							
NC1CCN(c2ccc(NC3=C(c4ccccc4)C(=O)N(Cc4ccccc4)C3=O)cc2)CC1 [Compound 46, 3-((4-(4-Aminopiperidin-1-yl)phenyl)amino)-1-benzyl-4-phenyl-1H-pyrrole-2,5-dione]		120	1250	630	1480			
O=C(O)Cc1cccc(OCCCN(Cc2cccc(C(F)(F)F)c2Cl)CC(c2ccccc2)c2ccccc2)c1 [GW3965 (2), reference compound]		24	40	87	320	dose-dependent response		
COc1ccc(NC2=C(c3ccccc3)C(=O)N(Cc3ccccc3)C2=O)cc1 [GSK3987 (3), 1-Benzyl-3-((4-methoxyphenyl)amino)-4-phenyl-1H-pyrrole-2,5-dione, reference compound]		180	248	154	99			
O=S(=O)(c1ccccc1)N(CC(F)(F)F)c1ccc(C(O)(C(F)(F)F)C(F)(F)F)cc1 [T0901317 (1)]						dose-dependent response		
COc1ccc(NC2=C(c3ccccc3)C(=O)N(C(C)(C)C)C2=O)cc1 [Compound 24, 1-(tert-Butyl)-3-((4-methoxyphenyl)amino)-4-phenyl-1H-pyrrole-2,5-dione]		232		245				
COc1cc(NC2=C(c3ccccc3)C(=O)N(Cc3ccccc3)C2=O)cc(OC)c1 [Compound 39, 1-Benzyl-3-((3,5-dimethoxyphenyl)amino)-4-phenyl-1H-pyrrole-2,5-dione]		1320		737				
O=C1NC(=O)C(c2ccccc2)=C1Nc1ccc(N2CCCCC2)cc1 [Compound 52, 3-Phenyl-4-((4-(piperidin-1-yl)phenyl)amino)-1H-pyrrole-2,5-dione]		> 3000		> 3000			no activity	no activity
CC(C)(C)N1C(=O)C(Nc2ccc(N3CCCCC3)cc2)=C(c2ccccc2)C1=O [Compound 51, 1-(tert-Butyl)-3-phenyl-4-((4-(piperidin-1-yl)phenyl)amino)-1H-pyrrole-2,5-dione]		156	113	36	19			
NC(=O)c1ccc(NC2=C(c3ccccc3)C(=O)N(Cc3ccccc3)C2=O)cc1 [Compound 36, 4-((1-Benzyl-2,5-dioxo-4-phenyl-2,5-dihydro-1H-pyrrol-3-yl)amino)benzamide]		> 3000		> 3000			completely abolished activation	completely abolished activation
